Measurements published in PMC3814616, “BRAF inhibitors suppress apoptosis through off-target inhibition of JNK signaling” (eLife, 2013).

Experiments:
[1] = test system: phospho-JNK and phospho-p38; details: A375 and WM35, 24 hr
[2] = test system: cleaved caspase 3; assay: Immunohistochemistry of cSCC from Hairless mice; assay type: in vivo, mouse; details: p=0.019
Description: (§1) We also used the Hairless mouse model of squamous cell carcinoma to assess whether PLX4720 would affect UV-driven tumor development. This is particularly relevant since it appears that UV exposure is an important initiating event in BRAFi-accelerated cSCC ([Su et al., 2012]). Unlike the DMBA/TPA model, in which lesions almost universally harbor Hras mutations ([Brown et al., 1990]), the Hairless model has a very low frequency of Ras mutation in papillomas and carcinomas ([van Kranen et al., 1995]), more similar to sporadic human cSCC. […]
(§2) Figure 5. […] (A and B) cDNA was reverse-transcribed from total RNA, PCR-amplified with the above primers (B) and analyzed by Sanger sequencing for mutations in both directions. No mutations in Hras, Kras, or Nras were detected in any of the papillomas (n = 5) or carcinomas (n = 3) isolated from PLX4720-treated mice. […]
(§3) Cutaneous squamous cell carcinomas biopsied from patients treated with or without BRAF-inhibitor were obtained either under clinical trials (Roche) or separate IRB approval (LAB08-0750). Staining levels were quantified by counting positively labeled cells and dividing by the total area of the tumor tissue within each sample. To measure tumor areas, all samples were photographed, tumor cells outlined, and total pixel numbers calculated using included image analysis tools in Adobe Photoshop and standardized to a hemacytometer to convert to mm^2. […]

[3] = test system: phospho-JNK; assay: Immunohistochemistry of cSCC from Hairless mice; assay type: in vivo, mouse; details: p=0.046
Description: as §1, §2, §3

[4] = molecular target: T1, human full-length ZAK (Homo sapiens, UniProt Q9NYL2); assay: In vitro kinase assay (Reaction Biology); assay type: biochemical
T1 construct: In vitro kinase assays were performed using human full-length ZAK; purchased Reaction Biology

[5] = test system: phospho-JNK and phospho-p38; assay: Western blot, UV-induced phospho-JNK and phospho-p38 in NHEKs; assay type: cell-based, human; details: NHEK, 1 μM, most significantly at 6 and 24 hr
Description: We next examined the responses of primary normal human epidermal keratinocytes (NHEKs) to vemurafenib. […] In probing members of the BCL2 family, we found similar results to those in the cSCC and HaCaT cell lines. […] The advantage of using primary cells is that p53 is intact.
Figure 2. […] DOI: http://dx.doi.org/10.7554/eLife.00969.010 [drawing 5]

T1 sequence (Q9NYL2 1-455 isoform Q9NYL2-2): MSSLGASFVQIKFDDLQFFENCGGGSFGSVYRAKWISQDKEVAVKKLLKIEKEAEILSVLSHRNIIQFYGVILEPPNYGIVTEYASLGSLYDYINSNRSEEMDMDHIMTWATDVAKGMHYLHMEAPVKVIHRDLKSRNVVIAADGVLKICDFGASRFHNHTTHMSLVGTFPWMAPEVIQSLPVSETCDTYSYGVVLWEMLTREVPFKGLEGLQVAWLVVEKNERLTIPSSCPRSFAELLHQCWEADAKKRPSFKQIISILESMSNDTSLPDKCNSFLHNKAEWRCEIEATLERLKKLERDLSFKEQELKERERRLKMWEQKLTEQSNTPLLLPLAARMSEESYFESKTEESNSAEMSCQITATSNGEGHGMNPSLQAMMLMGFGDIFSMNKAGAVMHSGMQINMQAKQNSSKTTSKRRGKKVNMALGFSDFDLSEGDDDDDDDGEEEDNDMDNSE

Row | SMILES | UV-mediated induction of phospho-p38 and phospho-JNK [1] | cleaved caspase 3 expression in tumors vs control-treated mice [2] | phospho-JNK expression in tumors vs control-treated mice [3] | IC50 ([4]; MBP substrate, ATP 2.5 μM, read-out: biochemical IC50) [nM] | remaining activity at 1 µM ([4]; at 1 μM, read-out: residual activity) [%] | UV-induced upregulation of phospho-JNK and phospho-p38 [5]
1 | CCCS(=O)(=O)Nc1ccc(F)c(C(=O)c2c[nH]c3ncc(Cl)cc23)c1F [PLX4720] | significant suppression | significant decreases | significant decreases | – | – | –
2 | CCCS(=O)(=O)Nc1ccc(F)c(C(=O)c2c[nH]c3ncc(-c4ccc(Cl)cc4)cc23)c1F [vemurafenib] | – | – | – | 187 ± 5 | 18.9 ± 0.5 | suppressed
